Patent EP4656642A1, “ESTROGEN RECEPTOR PROTEOLYSIS TARGETING CHIMERA COMPOUND AND USE THEREOF” (GAN & LEE PHARM CO., LTD, priority 2023, dated 2024)

How the values were obtained:
Format in all cases: cell-based
ERα [1] = biological target: T1, ERα (Homo sapiens, UniProt P03372); assay: Degradation of ERα in T-47D cells (immunoblotting, 4 h); parameters: host or cells: T-47D
T1 sequence (P03372 1-595): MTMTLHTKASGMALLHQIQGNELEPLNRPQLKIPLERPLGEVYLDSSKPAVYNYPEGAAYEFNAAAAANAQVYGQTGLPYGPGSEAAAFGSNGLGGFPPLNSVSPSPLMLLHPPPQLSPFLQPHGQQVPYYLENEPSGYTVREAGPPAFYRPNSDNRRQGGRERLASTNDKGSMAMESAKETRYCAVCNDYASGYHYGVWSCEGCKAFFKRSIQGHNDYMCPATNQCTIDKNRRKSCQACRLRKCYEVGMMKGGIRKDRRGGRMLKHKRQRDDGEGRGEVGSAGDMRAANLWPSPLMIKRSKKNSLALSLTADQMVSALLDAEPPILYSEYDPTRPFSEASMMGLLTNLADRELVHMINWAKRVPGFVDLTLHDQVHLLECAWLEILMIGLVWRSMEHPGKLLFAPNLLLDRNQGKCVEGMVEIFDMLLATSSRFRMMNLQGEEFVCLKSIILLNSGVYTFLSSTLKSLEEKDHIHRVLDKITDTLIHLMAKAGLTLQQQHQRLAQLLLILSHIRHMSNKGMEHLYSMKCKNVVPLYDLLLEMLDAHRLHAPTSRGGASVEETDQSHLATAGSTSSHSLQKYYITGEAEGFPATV
Method in brief: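 ERα protein levels were assessed by immunoblot of RIPA lysates (with protease inhibitor) after 4 h exposure at 37°C. Compound was added in DMSO to T-47D cells at final concentrations of 0.15-1000 nM.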

ERα [2] = biological target: T1, ERα; assay: Degradation of ERα in MCF-7 cells (immunoblotting, 4 h)
Method in brief: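 Degradation rate reflects ERα band intensity, corrected to an internal reference protein, relative to control. Values come from Western blotting of lysates from MCF-7 cells exposed 4 h at 37°C to compounds at final concentrations of 0.15-1000nM.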

MCF-7 cells = assay: Inhibition of cell proliferation of MCF-7 cells (CCK-8, 9 days); settings: treated for 9 days, CCK-8 kit (Table 6)
Method in brief: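 Read-out was CCK-8 viability after 9-day continuous exposure (37°C, 5% CO2) of MCF-7 cells plated at 800/well in 10% FBS DMEM across several compound concentrations. Values are proliferation IC50s.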

Row | SMILES | Degradation rate (%) of ERα in T-47D cells (ERα [1]; 1nM compound) [%] | Degradation rate (%) of ERα in T-47D cells (ERα [1]; 10nM compound) [%] | Degradation rate (%) of ERα in MCF-7 cells (ERα [2]; 1nM compound) [%] | Degradation rate (%) of ERα in MCF-7 cells (ERα [2]; 10nM compound) [%] | IC50 (MCF-7 cells) [nM]
1 | O=C1CCC(N2Cc3cc4c(cc3C2=O)OC2(CC4)CN(C3CC4(CCC5(CCN(c6ccc([C@@H]7c8ccc(O)cc8CC[C@@H]7c7ccccc7)cc6)CC5)CC4)C3)C2)C(=O)N1 (some centres unmarked) [H24] | 16 | 21 | -7 | 11 | 1180
2 | O=C1CCC(N2Cc3cc4c(cc3C2=O)OC2(CC4)CN(C3CC4(CCC5(CC4)CN(c4ccc([C@@H]6c7ccc(O)cc7CC[C@@H]6c6ccccc6)cc4)C5)C3)C2)C(=O)N1 (some centres unmarked) [H26] | 1 | 2 | -9 | -11 | 1260
3 | CN(CC(=O)N1CCC2(CC1)COc1c2ccc2c1CN(C1CCC(=O)NC1=O)C2=O)C1CC2(CCN(c3ccc([C@@H]4c5ccc(O)cc5CC[C@@H]4c4ccccc4)cc3)CC2)C1 (some centres unmarked) [H48] | 53 | 78 | 38 | 71 | 1260
4 | CN(CC(=O)N1CCC2(CC1)COc1c2ccc2c1CN(C1CCC(=O)NC1=O)C2=O)C1CCC2(CC1)CCN(c1ccc([C@@H]3c4ccc(O)cc4CC[C@@H]3c3ccccc3)cc1)CC2 (some centres unmarked) [H51] | 49 | 79 | 46 | 75 | 153
5 | CN(C(=O)CN1CCC2(CC1)COc1cc3c(cc12)CN(C1CCC(=O)NC1=O)C3=O)C1CCC2(CC1)CN(c1ccc([C@@H]3c4ccc(O)cc4CC[C@@H]3c3ccccc3)cc1)C2 (some centres unmarked) [H56] | 24 | 47 | -5 | 21 | 2250
6 | C[C@@H]1Cc2c(ccc3[nH]ncc23)C(c2ccc(N3CCC4(CC3)CC(N3CC[C@@H](N5CCC6(CC5)COc5c6ccc6c5CN(C5CCC(=O)NC5=O)C6=O)[C@@H](F)C3)C4)cn2)N1CC(F)(F)F (some centres unmarked) [H58] | 53 | 84 | 50 | 70 | 2320
7 | C[C@@H]1Cc2cc(O)ccc2[C@@H](c2c(F)cc(N3CCC(C(=O)N4CCC(N5CCC6(CC5)COc5c6ccc6c5CN(C5CCC(=O)NC5=O)C6=O)CC4)CC3)cc2F)N1CC(F)F (some centres unmarked) [I2] | 56 | 55 | 63 | 61 | 11.7
8 | C[C@@H]1Cc2cc(O)ccc2C(c2c(F)cc(N3CCC4(CC3)CC(N3CCC(N5CCC6(CC5)COc5c6ccc6c5CN(C5CCC(=O)NC5=O)C6=O)[C@@H](F)C3)C4)cc2F)N1CC(F)F (some centres unmarked) [I3] | 41 | 68 | 40 | 67 | 14.9
9 | C[C@@H]1CN(C(=O)C2CCN(c3cc(F)c(C4c5ccc(O)cc5C[C@@H](C)N4CC(F)F)c(F)c3)CC2)CCC1N1CCC2(CC1)COc1c2ccc2c1CN(C1CCC(=O)NC1=O)C2=O (some centres unmarked) [I5] | 55 | 68 | 60 | 56 | 10.5
10 | C[C@@H]1Cc2cc(O)ccc2C(c2c(F)cc(N3CCN(C[C@H]4CC[C@H](C(=O)N5CCC6(CC5)COc5c6ccc6c5CN(C5CCC(=O)NC5=O)C6=O)CC4)CC3)cc2F)N1CC(F)F (some centres unmarked) [I6] | 56 | 65 | 57 | 45 | 6.57
11 | O=C1CCC(N2Cc3c(ccc4c3OCC43CCN(c4ccc(C(=O)N5CCN(c6ccc([C@@H]7c8ccc(O)cc8CC[C@@H]7c7ccccc7)cc6)CC5)cn4)CC3)C2=O)C(=O)N1 (some centres unmarked) [J2] | 37 | 67 | 21 | 41 | 303000

Continued, values first:

Row | Degradation rate (%) of ERα in T-47D cells (ERα [1]; 1nM compound) [%] | Degradation rate (%) of ERα in T-47D cells (ERα [1]; 10nM compound) [%] | Degradation rate (%) of ERα in MCF-7 cells (ERα [2]; 1nM compound) [%] | Degradation rate (%) of ERα in MCF-7 cells (ERα [2]; 10nM compound) [%] | IC50 (MCF-7 cells) [nM] | SMILES
12 | 5 | 56 | 29 | 51 | 43.5 | O=C1CCC(N2Cc3c(ccc4c3OCC43CCN(CC4CCC(N5CCN(c6ccc([C@@H]7c8ccc(O)cc8CC[C@@H]7c7ccccc7)cc6)CC5)CC4)CC3)C2=O)C(=O)N1 (some centres unmarked) [H15]
13 | 50 | 81 | 53 | 77 | 140 | O=C1CCC(N2Cc3c(ccc4c3OCC43CCN(CC(=O)NC4CC5(CCN(c6ccc([C@@H]7c8ccc(O)cc8CC[C@@H]7c7ccccc7)cc6)CC5)C4)CC3)C2=O)C(=O)N1 (some centres unmarked) [H46]
14 | 49 | 82 | 39 | 76 | 363 | CN(C(=O)CN1CCC2(CC1)COc1c2ccc2c1CN(C1CCC(=O)NC1=O)C2=O)C1CC2(CCN(c3ccc([C@@H]4c5ccc(O)cc5CC[C@@H]4c4ccccc4)cc3)CC2)C1 (some centres unmarked) [H47]
15 | 48 | 77 | 50 | 71 | 5.08 | CN(C(=O)CN1CCC2(CC1)COc1c2ccc2c1CN(C1CCC(=O)NC1=O)C2=O)C1CCC2(CC1)CN(c1ccc([C@@H]3c4ccc(O)cc4CC[C@@H]3c3ccccc3)cc1)C2 (some centres unmarked) [H49]
16 | 49 | 74 | 53 | 61 | 5320 | CN(CC(=O)N1CCC2(CC1)COc1c2ccc2c1CN(C1CCC(=O)NC1=O)C2=O)C1CCC2(CC1)CN(c1ccc([C@@H]3c4ccc(O)cc4CC[C@@H]3c3ccccc3)cc1)C2 (some centres unmarked) [H52]
17 | 5 | 35 | 10 | 14 | 41.9 | O=C1CCC(N2Cc3c(ccc4c3OCC43CCN(C[C@H]4CC[C@@H](C#Cc5ccc([C@@H]6c7ccc(O)cc7CC[C@@H]6c6ccccc6)cc5)CC4)CC3)C2=O)C(=O)N1 (some centres unmarked) [H53]
18 | 24 | 60 | 11 | 44 | 260 | O=C1CCC(N2Cc3c(ccc4c3OCC43CCN(CC(=O)N(CC4CC4)C4CC5(CCN(c6ccc([C@@H]7c8ccc(O)cc8CC[C@@H]7c7ccccc7)cc6)CC5)C4)CC3)C2=O)C(=O)N1 (some centres unmarked) [H54]
19 | 56 | 83 | 28 | 62 | 199 | CCN(C(=O)CN1CCC2(CC1)COc1c2ccc2c1CN(C1CCC(=O)NC1=O)C2=O)C1CC2(CCN(c3ccc([C@@H]4c5ccc(O)cc5CC[C@@H]4c4ccccc4)cc3)CC2)C1 (some centres unmarked) [H55]
20 | 61 | 46 | 40 | 34 | 7360 | O=C1CCC(N2Cc3c(ccc4c3OCC43CCN(CC(=O)N4CCC(Oc5ccc([C@@H]6c7ccc(O)cc7CC[C@@H]6c6ccccc6)cc5)CC4)CC3)C2=O)C(=O)N1 (some centres unmarked) [H59]
21 | 41 | 37 | 38 | 35 | 106 | O=C1CCC(N2Cc3c(ccc4c3OCC43CCN(C(=O)CN4CCC(Oc5ccc([C@@H]6c7ccc(O)cc7CC[C@@H]6c6ccccc6)cc5)CC4)CC3)C2=O)C(=O)N1 (some centres unmarked) [H60]
22 | 63 | 76 | 37 | 40 | 4020 | O=C1CCC(N2Cc3c(ccc4c3OCC43CCN(C(=O)[C@H]4C[C@@H](OC5CCN(c6ccc([C@@H]7c8ccc(O)cc8CC[C@@H]7c7ccccc7)cc6)CC5)C4)CC3)C2=O)C(=O)N1 (some centres unmarked) [H61]
